According to patent US11382892B2, “Method for administration” (Hoffmann-La Roche Inc., priority 2012, dated 2022):
“And” between values parts separate entries of the source, which are not always exact repeats. Equal values may be shown once.

Assays:
[1] = tested on: MDM2 mRNA; assay: MDM2 mRNA assay in patient tumor biopsies; type: in vivo, human; conditions: for MDM2 mRNA Average FCBL: cohort average; for MDM2 mRNA Median FCBL: cohort median; for MDM2 mRNA FCBL: individual patients, tumor biopsy vs baseline
Procedure: The 10 mg tablets contain hypromellose acetate succinate, mannitol, microcrystalline cellulose, croscarmellose sodium, colloidal silicon dioxide, and magnesium stearate. The film-coat consists of hypromellose, titanium dioxide, talc, triacetin, iron oxide yellow, and iron oxide red. The 50 mg, 200 mg, and 400 mg film coated tablets contain the excipients hypromellose acetate succinate, croscarmellose sodium, colloidal silicon dioxide, and magnesium stearate. The film-coat consists of polyvinyl alcohol, titanium dioxide, polyethylene glycol, talc, iron oxide yellow, iron oxide red, and iron oxide black.
Tumor biopsies were collected at baseline and cycle 1, day 5±2.

[2] = tested on: human osteosarcoma cancer xenograft model SJSA1; assay: Antitumor activity (tumor volume, TGI, regression) in SJSA1 xenograft; type: in vivo, mice; conditions: for Full Regression / Partial Regression: 10 animals per group
Description: Efficacy data was graphically represented as the mean tumor volume*standard error of the mean (SEM). In addition, tumor volumes of treated groups were presented as percentages of tumor volumes of the control groups (% T/C), using the formula: 100×((T−T0)/(C−C0)), where T represented mean tumor volume of a treated group on a specific day during the experiment, T0 represented mean tumor volume of the same […] group on the first day of treatment; C represented mean tumor volume of a control group on the specific day during the experiment, and C0 represented mean tumor volume of the same […] group on the first day of treatment.
Tumor volume (in cubic millimeters) was calculated using the ellipsoid formula: (D×(d^2))/2, where “D” represents the large diameter of the tumor and “d” represents the small diameter. In some cases, tumor regression and/or percent change in tumor volume was calculated using the formula: ((T−T0)/T0)×100, where ‘T’ represents mean tumor volume of the treated group at a particular day, and ‘T0’ represents mean tumor volume of the same treated group at initiation of treatment.
All dose levels are reported as the actual dosage of Compound A rather than including drug plus polymer.
Female athymic Crl:NU-Foxn1nu mice (10/group), obtained from Charles River Laboratories (Wilmington, Del.) were utilized when they were approximately 10-12 weeks of age and weighed 23-25 g. The health of the mice was assessed daily by gross observation and analyses of blood samples taken from sentinel animals housed on shared shelf racks. All animals were allowed to acclimate and recover from any shipping-related stress for a minimum of 72 hours prior to experimental use. Autoclaved water and irradiated food (5058-ms Pico Lab mouse chow, Purina Mills, Richmond, Ind.) were provided ad libitum, and the animals were maintained on a 12 hour light and dark cycle. Cages, bedding and water bottles were autoclaved before use and changed weekly. All animal experiments were conducted in accordance with the Guide for the Care and Use of Laboratory Animals, local regulations, and protocols approved by the Roche Animal Care and Use Committee in an AAALAC accredited facility.
SJSA cells (ATCC) were maintained in RPMI 1640+10% (v/v) heat-inactivated FBS+i % (v/v) […] L-glutamine. Each mouse received 5×10^6 cells in a 1:1 mixture of phosphate buffered saline and Matrigel in a total volume of 0.2 ml. Cells were implanted subcutaneously in the right flank using a 1 cc syringe and a 26 gauge needle.
Treatment duration was 2-4 weeks. Dates of tumor implant, treatment initiation (study start date), and termination of treatment (study end date) can be found in Table 6 below. The starting tumor volume for this study was about 220 mm^3. Tumor volumes and animal body weights were measured three times per week and animals were monitored for clinical signs daily.

[3] = 100 mg/kg QD po 2 on/12 off x 2
[4] = 200 mg/kg (two 100 mg/kg doses 8 hr apart) 1x/wk po

COc1cc(C(=O)O)ccc1NC(=O)[C@@H]1N[C@@H](CC(C)(C)C)[C@](C#N)(c2ccc(Cl)cc2F)[C@H]1c1cccc(Cl)c1F [Compound A, 4-{[(2R,3S,4R,5S)-4-(4-Chloro-2-fluoro-phenyl)-3-(3-chloro-2-fluoro-phenyl)-4-cyano-5-(2,2-dimethyl-propyl)-pyrrolidine-2-carbonyl]-amino}-3-methoxy-benzoic acid]
MDM2 mRNA Average FCBL ([1]; BM-A1 800 mg bid Qwk × 3): 1.2
MDM2 mRNA Median FCBL ([1]; BM-A1 800 mg bid Qwk × 3): 1.1
MDM2 mRNA FCBL ([1]; BM-A1 800 mg bid Qwk × 3): 1.0 and 1.4 and 1.1
MDM2 mRNA Average FCBL ([1]; BM-A2 1200 mg bid Qwk × 3): 1.4
MDM2 mRNA Median FCBL ([1]; BM-A2 1200 mg bid Qwk × 3): 1.3
MDM2 mRNA FCBL ([1]; BM-A2 1200 mg bid Qwk × 3): 1.0 (2×) and 1.8 and 2.1 and 1.3
MDM2 mRNA Average FCBL ([1]; BM-B1 400 mg bid × 5 d): 8.5
MDM2 mRNA Median FCBL ([1]; BM-B1 400 mg bid × 5 d): 8.7
MDM2 mRNA FCBL ([1]; BM-B1 400 mg bid × 5 d): 5.4 and 3.7 and 12.1 and 12.9
MDM2 mRNA Average FCBL ([1]; BM-B2 500 mg bid × 3 d): 5.1
MDM2 mRNA Median FCBL ([1]; BM-B2 500 mg bid × 3 d): 1.3
MDM2 mRNA FCBL ([1]; BM-B2 500 mg bid × 3 d): 0.2 and 0.7 and 1.3 and 3.8 and 19.6
MDM2 mRNA Average FCBL ([1]; BM-B3 500 mg qd × 5 d): 2.4
MDM2 mRNA Median FCBL ([1]; BM-B3 500 mg qd × 5 d): 2.0
MDM2 mRNA FCBL ([1]; BM-B3 500 mg qd × 5 d): 1.5 and 2.5 and 4.2 and 1.2
levels of MDM2 mRNA expression in patient's tumors ([1]; doses and schedules of Table 8): increase in the levels of MDM2 mRNA expression
% Inhibition end of study Day: 32 ([2]; 7.5 mg/kg QD po): 66%
% T/C End of Study Day: 32 ([2]; 7.5 mg/kg QD po): 34%
Mean Tumor Volume (mm3) End Study Day: 32 ([2]; 7.5 mg/kg QD po): 18.01 mm3
Full Regression ([2]; 7.5 mg/kg QD po): 0
Partial Regression ([2]; 7.5 mg/kg QD po): 0
% Inhibition end of study Day: 32 ([2]; 15 mg/kg QD po): 79%
% T/C End of Study Day: 32 ([2]; 15 mg/kg QD po): 21%
Mean Tumor Volume (mm3) End Study Day: 32 ([2]; 15 mg/kg QD po): 16.42 mm3
Full Regression ([2]; 15 mg/kg QD po): 0
Partial Regression ([2]; 15 mg/kg QD po): 0
% Inhibition end of study Day: 32 ([2]; 20 mg/kg QD po 20 on/8 off): 98%
% T/C End of Study Day: 32 ([2]; 20 mg/kg QD po 20 on/8 off): 2%
Mean Tumor Volume (mm3) End Study Day: 32 ([2]; 20 mg/kg QD po 20 on/8 off): 315.19 mm3
Full Regression ([2]; 20 mg/kg QD po 20 on/8 off): 0
Partial Regression ([2]; 20 mg/kg QD po 20 on/8 off): 5
% Inhibition end of study Day: 32 ([2]; 30 mg/kg QD po): regression
% T/C End of Study Day: 32 ([2]; 30 mg/kg QD po): −1%
Average % Regression per Group ([2]; 30 mg/kg QD po): 13%
Mean Tumor Volume (mm3) End Study Day: 32 ([2]; 30 mg/kg QD po): 19.35 mm3
Full Regression ([2]; 30 mg/kg QD po): 0
Partial Regression ([2]; 30 mg/kg QD po): 7
% Inhibition end of study Day: 32 ([2]; 50 mg/kg 1x/wk po): 57%
% T/C End of Study Day: 32 ([2]; 50 mg/kg 1x/wk po): 43%
Mean Tumor Volume (mm3) End Study Day: 32 ([2]; 50 mg/kg 1x/wk po): 22.66 mm3
Full Regression ([2]; 50 mg/kg 1x/wk po): 0
Partial Regression ([2]; 50 mg/kg 1x/wk po): 0
% Inhibition end of study Day: 32 ([2]; 50 mg/kg QD po 2 on/5 off x 4): 99%
% T/C End of Study Day: 32 ([2]; 50 mg/kg QD po 2 on/5 off x 4): 1%
Mean Tumor Volume (mm3) End Study Day: 32 ([2]; 50 mg/kg QD po 2 on/5 off x 4): 257.29 mm3
Full Regression ([2]; 50 mg/kg QD po 2 on/5 off x 4): 0
Partial Regression ([2]; 50 mg/kg QD po 2 on/5 off x 4): 3
% Inhibition end of study Day: 32 ([2]; 50 mg/kg QD po 4 on/10 off x 2): 99%
% T/C End of Study Day: 32 ([2]; 50 mg/kg QD po 4 on/10 off x 2): 1%
Mean Tumor Volume (mm3) End Study Day: 32 ([2]; 50 mg/kg QD po 4 on/10 off x 2): 244.70 mm3
Full Regression ([2]; 50 mg/kg QD po 4 on/10 off x 2): 0
Partial Regression ([2]; 50 mg/kg QD po 4 on/10 off x 2): 6
% Inhibition end of study Day: 32 ([2]; 80 mg/kg QD po 5 on/23 off): regression
% T/C End of Study Day: 32 ([2]; 80 mg/kg QD po 5 on/23 off): −2%
Average % Regression per Group ([2]; 80 mg/kg QD po 5 on/23 off): 35%
Mean Tumor Volume (mm3) End Study Day: 32 ([2]; 80 mg/kg QD po 5 on/23 off): 128.05 mm3
Full Regression ([2]; 80 mg/kg QD po 5 on/23 off): 2
Partial Regression ([2]; 80 mg/kg QD po 5 on/23 off): 6
% Inhibition end of study Day: 32 ([2]; 100 mg/kg 1x/wk po): 94%
% T/C End of Study Day: 32 ([2]; 100 mg/kg 1x/wk po): 6%
Mean Tumor Volume (mm3) End Study Day: 32 ([2]; 100 mg/kg 1x/wk po): 474.73 mm3
Full Regression ([2]; 100 mg/kg 1x/wk po): 0
Partial Regression ([2]; 100 mg/kg 1x/wk po): 1
% Inhibition end of study Day: 32 ([2]; 100 mg/kg QD po 2 on/5 off x 4): regression
% T/C End of Study Day: 32 ([2]; 100 mg/kg QD po 2 on/5 off x 4): −2%
Average % Regression per Group ([2]; 100 mg/kg QD po 2 on/5 off x 4): 47%
Mean Tumor Volume (mm3) End Study Day: 32 ([2]; 100 mg/kg QD po 2 on/5 off x 4): 25.68 mm3
Full Regression ([2]; 100 mg/kg QD po 2 on/5 off x 4): 0
Partial Regression ([2]; 100 mg/kg QD po 2 on/5 off x 4): 9
% Inhibition end of study Day: 32 [2, 3]: regression
% T/C End of Study Day: 32 [2, 3]: 0%
Average % Regression per Group [2, 3]: 11%
Mean Tumor Volume (mm3) End Study Day: 32 [2, 3]: 179.88 mm3
Full Regression [2, 3]: 0
Partial Regression [2, 3]: 7
% Inhibition end of study Day: 32 [2, 4]: regression
% T/C End of Study Day: 32 [2, 4]: −1%
Average % Regression per Group [2, 4]: 29%
Mean Tumor Volume (mm3) End Study Day: 32 [2, 4]: 158.95 mm3
Full Regression [2, 4]: 0
Partial Regression [2, 4]: 7
growth inhibitory activity (FIG. 1) ([2]; 5 day on/23 day off treatment schedule): good growth inhibitory activity
